Assay results from ChEMBL document CHEMBL6134864, “Discovery of FLT3-ITD Inhibitor Clifutinib: A Novel Biphenylacetylene Urea Derivative in Clinical Trials for the Treatment of Relapsed/Refractory FLT3-ITD+ Acute Myeloid Leukemia” (J Med Chem, 2025).

Experiments:
[1] = Half life in rat plasma at 5 mg/kg, po measured up to 24 hrs by LC-MS/MS analysis; assay type: ADME, organism-based
[2] = AUClast in rat plasma at 5 mg/kg, po measured up to 24 hrs by LC-MS/MS analysis; assay type: ADME, organism-based
[3] = Oral bioavailability in mouse plasma at 10 mg/kg measured up to 24 hrs by LC-MS/MS analysis; assay type: ADME, organism-based
[4] = Tmax in dog plasma at 1 mg/kg, iv measured up to 24 hrs by LC-MS/MS analysis; assay type: ADME, organism-based, Canis lupus familiaris
[5] = AUC last in dog plasma at 1 mg/kg, iv measured up to 24 hrs by LC-MS/MS analysis; assay type: ADME, organism-based, Canis lupus familiaris
[6] = Half life in dog plasma at 1 mg/kg, iv measured up to 24 hrs by LC-MS/MS analysis; assay type: ADME, organism-based, Canis lupus familiaris
[7] = Volume of distribution at steady state in dog plasma at 1 mg/kg, iv measured up to 24 hrs by LC-MS/MS analysis; assay type: ADME, organism-based, Canis lupus familiaris; settings: read-out: Vdss
[8] = Tmax in dog plasma at 5 mg/kg, po measured up to 24 hrs by LC-MS/MS analysis; assay type: ADME, organism-based, Canis lupus familiaris
[9] = Oral bioavailability in dog plasma at 5 mg/kg measured up to 24 hrs by LC-MS/MS analysis; assay type: ADME, organism-based, Canis lupus familiaris
[10] = Tmax in monkey plasma at 1 mg/kg, iv measured up to 24 hrs by LC-MS/MS analysis; assay type: ADME, organism-based, Macaca mulatta; settings: rhesus monkey
[11] = Cmax in monkey plasma at 1 mg/kg, iv measured up to 24 hrs by LC-MS/MS analysis; assay type: ADME, organism-based, Macaca mulatta; settings: rhesus monkey
[12] = AUC last in monkey plasma at 1 mg/kg, iv measured up to 24 hrs by LC-MS/MS analysis; assay type: ADME, organism-based, Macaca mulatta; settings: rhesus monkey, in vivo
[13] = Cmax in monkey plasma at 5 mg/kg, po measured up to 24 hrs by LC-MS/MS analysis; assay type: ADME, organism-based, Macaca mulatta; settings: rhesus monkey
BaF3 [14] = assay: Antiproliferative activity against mouse BaF3 cells harbouring FLT3-ITD-D835I mutant assessed as inhibition of cell growth incubated for 72 hrs by celltiter-glo luminescent cell viability assay; assay type: functional, cell-based; settings: BaF3, 72 h
BaF3 [15] = assay: Antiproliferative activity against mouse BaF3 cells harbouring FLT3-ITD-Y842H mutant assessed as inhibition of cell growth incubated for 72 hrs by celltiter-glo luminescent cell viability assay; assay type: functional, cell-based; settings: BaF3, 72 h
BaF3 [16] = assay: Antiproliferative activity against mouse BaF3 cells harbouring FLT3-ITD-Y842R mutant assessed as inhibition of cell growth incubated for 72 hrs by celltiter-glo luminescent cell viability assay; assay type: functional, cell-based; settings: BaF3, 72 h
BaF3 [17] = assay: Antiproliferative activity against mouse BaF3 cells harbouring FLT3-D835Y mutant assessed as inhibition of cell growth incubated for 72 hrs by celltiter-glo luminescent cell viability assay; assay type: functional, cell-based; settings: BaF3, 72 h
[18] = tested on: Receptor-type tyrosine-protein kinase FLT3 (Homo sapiens), P36888 [UNDEFINED MUTATION]; assay: Inhibition of FLT3 in human MV4-11 cells harbouring FLT3-ITD mutant assessed as inhibition of ERK phosphorylation level measured after 2 hrs by Western blot analysis; assay type: cell-based; settings: dose 1-1000 nM
[19] = biological target: Mast/stem cell growth factor receptor Kit (Homo sapiens, UniProt P10721); assay: Inhibition of human KIT by biochemical kinase binding assay
[20] = biological target: Proto-oncogene tyrosine-protein kinase receptor Ret (Homo sapiens, UniProt P07949, Y791F); assay: Inhibition of human RET Y791F mutant by biochemical kinase binding assay
[21] = biological target: Mast/stem cell growth factor receptor Kit (Homo sapiens, UniProt P10721, T670I/V559D); assay: Inhibition of human KIT V559D/T670I mutant by biochemical kinase binding assay
[22] = biological target: Mast/stem cell growth factor receptor Kit (Homo sapiens, UniProt P10721, Y823D); assay: Inhibition of human KIT Y823D mutant by biochemical kinase binding assay
Cytochrome P450 1A2 = Cytochrome P450 1A2 (Homo sapiens, UniProt P05177); assay: Inhibition of CYP1A2 in human liver microsomes by UPLC-MS/MS analysis; assay type: ADME, Microsome
Cytochrome P450 2B6 = Cytochrome P450 2B6 (Homo sapiens, UniProt P20813); assay: Inhibition of CYP2B6 in human liver microsomes by UPLC-MS/MS analysis; assay type: ADME, Microsome
Cytochrome P450 2C9 = Cytochrome P450 2C9 (Homo sapiens, UniProt P11712); assay: Inhibition of CYP2C9 in human liver microsomes by UPLC-MS/MS analysis; assay type: ADME, Microsome
Cytochrome P450 3A4 = Cytochrome P450 3A4 (Homo sapiens, UniProt P08684); assay: Inhibition of CYP3A4 in human liver microsomes by UPLC-MS/MS analysis; assay type: ADME, Microsome
[23] = Toxicity in NOD/SCID mouse assessed as observable signs of toxicity at 0.5 to 4.5 mg/kg/day, po administered for 21 days and measured for 31 days post dose; assay type: organism-based; settings: in vivo, 504 h, dose 0.5-4.5 mg/kg/day, time 21 day
MOLM-13 = assay: Antitumor activity against human MOLM-13 cells xenografted in NOD/SCID mouse model assessed as tumor growth inhibition at 0.5 mg/kg/day, po by caliper analysis relative to control; assay type: functional; settings: read-out: TGI
[24] = Half life in NOD/SCID mouse plasma xenografted with human MV4-11 cells at 4.5 mg/kg, po measured up to 24 hrs by LC-MS/MS analysis; assay type: ADME, organism-based
[25] = Tmax in NOD/SCID mouse plasma xenografted with human MV4-11 cells at 0.5 mg/kg, po measured up to 24 hrs by LC-MS/MS analysis; assay type: ADME, organism-based
[26] = Tmax in NOD/SCID mouse tumor xenografted with human MV4-11 cells at 0.5 mg/kg, po measured up to 24 hrs by LC-MS/MS analysis; assay type: ADME, organism-based, Neoplasm
[27] = Cmax in NOD/SCID mouse tumor xenografted with human MV4-11 cells at 0.5 mg/kg, po measured up to 24 hrs by LC-MS/MS analysis; assay type: ADME, organism-based, Neoplasm
[28] = AUC (0 to t) in NOD/SCID mouse tumor xenografted with human MV4-11 cells at 0.5 mg/kg, po measured up to 24 hrs by LC-MS/MS analysis; assay type: ADME, organism-based, Neoplasm
[29] = AUC (0 to t) in NOD/SCID mouse tumor xenografted with human MV4-11 cells at 4.5 mg/kg, po measured up to 24 hrs by LC-MS/MS analysis; assay type: ADME, organism-based, Neoplasm
MOLT-4 = assay: cells; settings: Homo sapiens, MOLT-4, 72 h
Description: Antiproliferative activity against human MOLT-4 cells assessed as inhibition of cell growth incubated for 72 hrs by celltiter-glo luminescent cell viability assay

NCI-H460 = assay: cells; settings: Homo sapiens, NCI-H460, 72 h
Description: Antiproliferative activity against human NCI-H460 cells assessed as inhibition of cell growth incubated for 72 hrs by celltiter-glo luminescent cell viability assay

DU-145 = assay: cells; settings: Homo sapiens, DU-145, 72 h
Description: Antiproliferative activity against human DU-145 cells assessed as inhibition of cell growth incubated for 72 hrs by celltiter-glo luminescent cell viability assay

786-0 = assay: cells; settings: Homo sapiens, 786-0, 72 h
Description: Antiproliferative activity against human 786-0 cells assessed as inhibition of cell growth incubated for 72 hrs by celltiter-glo luminescent cell viability assay

U-251 = assay: cells; settings: Homo sapiens, U-251, 72 h
Description: Antiproliferative activity against human U-251 cells assessed as inhibition of cell growth incubated for 72 hrs by celltiter-glo luminescent cell viability assay

BaF3 [30] = assay: cells; settings: Mus musculus, BaF3, 72 h
BaF3 [31] = assay: cells; settings: Mus musculus, BaF3, 72 h; remark: listed apart in the source

Cytochrome P450 1A2, sequence (P05177 whole entry): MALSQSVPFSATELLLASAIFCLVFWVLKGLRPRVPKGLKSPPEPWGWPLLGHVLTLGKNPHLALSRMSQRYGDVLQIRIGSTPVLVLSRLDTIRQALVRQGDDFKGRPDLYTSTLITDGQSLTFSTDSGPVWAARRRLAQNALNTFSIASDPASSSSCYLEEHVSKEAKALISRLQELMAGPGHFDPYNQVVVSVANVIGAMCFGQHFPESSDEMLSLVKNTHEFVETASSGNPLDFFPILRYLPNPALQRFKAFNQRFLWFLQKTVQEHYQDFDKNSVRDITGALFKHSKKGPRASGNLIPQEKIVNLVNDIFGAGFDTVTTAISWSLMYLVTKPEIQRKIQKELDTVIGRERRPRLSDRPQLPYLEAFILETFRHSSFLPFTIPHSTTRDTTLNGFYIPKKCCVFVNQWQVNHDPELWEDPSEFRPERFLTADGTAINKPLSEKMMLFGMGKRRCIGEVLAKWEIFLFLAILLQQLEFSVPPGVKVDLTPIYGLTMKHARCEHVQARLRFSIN
Proto-oncogene tyrosine-protein kinase receptor Ret, sequence (P07949 29-1114 Y791F limits assumed): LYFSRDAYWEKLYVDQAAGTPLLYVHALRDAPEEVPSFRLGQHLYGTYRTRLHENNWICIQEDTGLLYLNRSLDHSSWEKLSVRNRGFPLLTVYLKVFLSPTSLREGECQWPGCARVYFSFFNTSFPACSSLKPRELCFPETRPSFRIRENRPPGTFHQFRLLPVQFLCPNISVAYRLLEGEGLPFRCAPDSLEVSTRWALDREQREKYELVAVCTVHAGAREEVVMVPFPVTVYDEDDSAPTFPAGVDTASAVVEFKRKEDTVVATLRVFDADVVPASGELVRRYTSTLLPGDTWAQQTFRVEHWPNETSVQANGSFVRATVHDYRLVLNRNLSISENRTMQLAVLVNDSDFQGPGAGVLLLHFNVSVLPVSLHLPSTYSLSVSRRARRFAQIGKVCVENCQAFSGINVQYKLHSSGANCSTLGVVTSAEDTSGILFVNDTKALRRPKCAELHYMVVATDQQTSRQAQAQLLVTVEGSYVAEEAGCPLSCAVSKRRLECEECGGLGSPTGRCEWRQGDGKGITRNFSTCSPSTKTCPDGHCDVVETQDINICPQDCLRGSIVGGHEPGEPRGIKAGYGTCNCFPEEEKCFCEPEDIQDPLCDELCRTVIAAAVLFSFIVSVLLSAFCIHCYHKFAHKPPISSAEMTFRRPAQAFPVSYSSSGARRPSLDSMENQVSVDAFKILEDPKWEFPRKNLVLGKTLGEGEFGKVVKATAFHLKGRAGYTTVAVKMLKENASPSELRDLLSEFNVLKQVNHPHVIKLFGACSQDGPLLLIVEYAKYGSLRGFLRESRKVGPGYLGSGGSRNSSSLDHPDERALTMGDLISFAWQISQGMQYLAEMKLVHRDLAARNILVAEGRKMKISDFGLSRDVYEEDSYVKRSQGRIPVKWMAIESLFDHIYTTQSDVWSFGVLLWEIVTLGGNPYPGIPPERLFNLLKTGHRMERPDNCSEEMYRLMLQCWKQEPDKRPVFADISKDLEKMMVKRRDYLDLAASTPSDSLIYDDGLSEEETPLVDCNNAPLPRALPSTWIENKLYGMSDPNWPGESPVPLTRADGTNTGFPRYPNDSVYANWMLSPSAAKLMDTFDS
Cytochrome P450 2B6, sequence (P20813 whole entry): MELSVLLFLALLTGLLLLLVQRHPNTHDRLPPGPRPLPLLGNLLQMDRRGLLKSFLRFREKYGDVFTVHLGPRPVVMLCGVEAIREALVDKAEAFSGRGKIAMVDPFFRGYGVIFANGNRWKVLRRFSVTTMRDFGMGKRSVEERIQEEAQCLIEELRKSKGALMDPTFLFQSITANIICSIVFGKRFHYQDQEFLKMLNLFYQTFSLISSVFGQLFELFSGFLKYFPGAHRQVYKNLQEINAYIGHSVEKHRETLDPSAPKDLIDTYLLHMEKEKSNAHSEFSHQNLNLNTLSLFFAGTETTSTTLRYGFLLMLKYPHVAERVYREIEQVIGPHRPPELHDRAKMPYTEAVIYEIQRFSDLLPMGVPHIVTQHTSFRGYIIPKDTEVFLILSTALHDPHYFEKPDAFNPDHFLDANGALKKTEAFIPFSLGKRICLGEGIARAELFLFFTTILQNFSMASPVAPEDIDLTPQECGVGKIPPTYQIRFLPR
Cytochrome P450 2C9, sequence (P11712 whole entry): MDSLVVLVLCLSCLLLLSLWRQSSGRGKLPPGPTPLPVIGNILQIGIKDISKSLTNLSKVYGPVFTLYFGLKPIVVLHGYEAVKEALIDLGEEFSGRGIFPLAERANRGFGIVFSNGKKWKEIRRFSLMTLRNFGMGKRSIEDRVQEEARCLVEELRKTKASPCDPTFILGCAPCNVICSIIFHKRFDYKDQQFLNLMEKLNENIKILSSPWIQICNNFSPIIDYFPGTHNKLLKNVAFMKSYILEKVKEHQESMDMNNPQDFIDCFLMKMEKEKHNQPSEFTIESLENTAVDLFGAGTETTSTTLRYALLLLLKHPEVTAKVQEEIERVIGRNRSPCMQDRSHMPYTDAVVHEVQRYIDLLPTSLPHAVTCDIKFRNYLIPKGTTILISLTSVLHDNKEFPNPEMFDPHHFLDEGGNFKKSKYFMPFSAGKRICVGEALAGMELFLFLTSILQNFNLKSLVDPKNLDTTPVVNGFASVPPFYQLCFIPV
Mast/stem cell growth factor receptor Kit (Homo sapiens, UniProt P10721), sequence (P10721 whole entry): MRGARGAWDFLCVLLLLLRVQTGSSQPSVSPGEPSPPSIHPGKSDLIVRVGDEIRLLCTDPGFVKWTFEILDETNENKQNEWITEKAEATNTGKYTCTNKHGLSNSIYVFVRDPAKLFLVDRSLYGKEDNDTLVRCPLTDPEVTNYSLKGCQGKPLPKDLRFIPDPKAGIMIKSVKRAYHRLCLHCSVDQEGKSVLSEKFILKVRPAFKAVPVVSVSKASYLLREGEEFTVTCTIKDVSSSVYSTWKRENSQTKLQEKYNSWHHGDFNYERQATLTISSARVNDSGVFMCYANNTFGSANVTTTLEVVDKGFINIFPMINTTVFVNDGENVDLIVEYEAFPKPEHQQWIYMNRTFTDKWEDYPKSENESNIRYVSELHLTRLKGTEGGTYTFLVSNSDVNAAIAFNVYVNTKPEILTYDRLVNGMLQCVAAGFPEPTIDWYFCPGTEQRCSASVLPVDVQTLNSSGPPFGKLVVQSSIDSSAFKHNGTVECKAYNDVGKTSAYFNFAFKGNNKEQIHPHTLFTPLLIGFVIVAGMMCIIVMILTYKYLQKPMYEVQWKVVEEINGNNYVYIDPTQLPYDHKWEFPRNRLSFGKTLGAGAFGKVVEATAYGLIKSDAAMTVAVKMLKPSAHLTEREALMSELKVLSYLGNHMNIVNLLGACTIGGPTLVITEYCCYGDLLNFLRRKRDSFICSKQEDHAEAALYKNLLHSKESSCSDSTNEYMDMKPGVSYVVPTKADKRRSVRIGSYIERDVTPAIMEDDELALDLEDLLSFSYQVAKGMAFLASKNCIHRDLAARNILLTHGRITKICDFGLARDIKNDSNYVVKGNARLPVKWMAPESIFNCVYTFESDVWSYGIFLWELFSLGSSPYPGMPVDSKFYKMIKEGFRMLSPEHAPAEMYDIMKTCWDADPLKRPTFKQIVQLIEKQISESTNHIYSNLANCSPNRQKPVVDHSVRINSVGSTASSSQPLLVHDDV
Mast/stem cell growth factor receptor Kit (Homo sapiens, UniProt P10721, T670I/V559D), sequence (P10721 26-976 V559D/T670I limits assumed): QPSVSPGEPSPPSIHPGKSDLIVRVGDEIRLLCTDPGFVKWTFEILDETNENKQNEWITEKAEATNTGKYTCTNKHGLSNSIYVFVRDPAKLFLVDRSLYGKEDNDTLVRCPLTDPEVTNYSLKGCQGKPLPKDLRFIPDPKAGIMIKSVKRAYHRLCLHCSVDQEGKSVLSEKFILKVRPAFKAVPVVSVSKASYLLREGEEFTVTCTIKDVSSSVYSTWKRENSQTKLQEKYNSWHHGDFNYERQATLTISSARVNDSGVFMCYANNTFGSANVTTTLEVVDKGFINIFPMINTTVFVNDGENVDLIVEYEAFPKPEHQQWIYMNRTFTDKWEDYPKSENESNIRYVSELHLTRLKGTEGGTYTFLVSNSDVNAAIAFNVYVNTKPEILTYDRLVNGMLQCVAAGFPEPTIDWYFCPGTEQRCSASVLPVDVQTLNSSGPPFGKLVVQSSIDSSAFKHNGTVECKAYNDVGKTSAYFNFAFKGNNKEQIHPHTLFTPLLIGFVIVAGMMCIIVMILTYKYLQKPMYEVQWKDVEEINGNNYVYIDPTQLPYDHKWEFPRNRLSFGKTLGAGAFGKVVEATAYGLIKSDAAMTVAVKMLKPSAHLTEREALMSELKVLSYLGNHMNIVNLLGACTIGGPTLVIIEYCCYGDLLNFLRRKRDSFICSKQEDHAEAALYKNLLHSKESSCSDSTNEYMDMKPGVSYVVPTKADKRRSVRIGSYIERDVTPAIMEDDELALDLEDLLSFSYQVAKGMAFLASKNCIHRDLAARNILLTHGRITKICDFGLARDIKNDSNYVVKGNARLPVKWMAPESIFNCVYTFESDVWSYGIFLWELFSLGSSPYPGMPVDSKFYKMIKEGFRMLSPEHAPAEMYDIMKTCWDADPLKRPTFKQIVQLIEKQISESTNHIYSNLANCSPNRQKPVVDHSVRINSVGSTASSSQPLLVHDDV
Cytochrome P450 3A4, sequence (P08684 whole entry): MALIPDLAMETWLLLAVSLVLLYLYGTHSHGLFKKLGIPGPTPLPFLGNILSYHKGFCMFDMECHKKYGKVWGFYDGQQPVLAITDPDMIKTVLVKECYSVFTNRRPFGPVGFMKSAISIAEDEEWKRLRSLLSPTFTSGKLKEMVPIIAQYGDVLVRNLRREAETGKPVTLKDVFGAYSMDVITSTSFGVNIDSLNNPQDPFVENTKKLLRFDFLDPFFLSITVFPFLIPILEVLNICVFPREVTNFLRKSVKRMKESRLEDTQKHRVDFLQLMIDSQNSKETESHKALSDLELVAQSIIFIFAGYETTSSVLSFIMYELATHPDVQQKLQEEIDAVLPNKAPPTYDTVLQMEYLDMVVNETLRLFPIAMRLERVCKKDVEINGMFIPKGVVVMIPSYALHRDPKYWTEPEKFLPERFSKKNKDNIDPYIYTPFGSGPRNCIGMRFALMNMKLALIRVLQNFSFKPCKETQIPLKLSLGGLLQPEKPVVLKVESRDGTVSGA
Mast/stem cell growth factor receptor Kit (Homo sapiens, UniProt P10721, Y823D), sequence (P10721 26-976 Y823D limits assumed): as the sequence (P10721 26-976 V559D/T670I limits assumed) above, with D534V, I645T, Y798D counted along it

Structure (SMILES): CC(C)(C)c1cc(NC(=O)Nc2ccc(C#Cc3ccc(OCCCN4CCOCC4)cc3)cc2)no1
- half-life [1]: 4.45 h
- AUC(0-t) at 24 h [2]: 8310 ng·h/mL
- bioavailability [3]: 50.3%
- Tmax [4]: 4.98 min
- AUC(0-t) at 24 h [5]: 1290 ng·h/mL
- half-life [6]: 6.28 h
- Vd [7]: 5.08 L/kg
- Tmax [8]: 1.67 h
- bioavailability [9]: 71.9%
- Tmax [10]: 4.98 min
- Cmax [11]: 4720 ng/mL
- AUClast [12]: 10100 ng·h/mL
- Cmax [13]: 1410 ng/mL
- IC50 (BaF3 [14]): 302 nM
- IC50 (BaF3 [15]): 38 nM
- IC50 (BaF3 [16]): 21.8 nM
- IC50 (BaF3 [17]): 5.4 nM
- inhibition [18]: Dose-dependent-effect
- IC50 [19]: 1790 nM
- IC50 [20]: 119 nM
- IC50 [21]: 283 nM
- IC50 [22]: 283 nM
- IC50 (Cytochrome P450 1A2): > 33300 nM
- IC50 (Cytochrome P450 2B6): > 33300 nM
- IC50 (Cytochrome P450 2C9): > 33300 nM
- IC50 (Cytochrome P450 3A4): > 33300 nM
- Activity [23]: Non-toxic
- inhibition in vivo at 0.5 mg/kg/day (MOLM-13): 39%
- half-life [24]: 3.82 h
- Tmax [25]: 1 h
- Tmax [26]: 3 h
- Cmax [27]: 23.3 ng/mL
- AUC(0-t) at 24 h [28]: 380 ng·h/mL
- AUC(0-t) at 24 h [29]: 4700 ng·h/mL
- IC50 (MOLT-4): > 10000 nM
- IC50 (NCI-H460): 7800 nM
- IC50 (DU-145): > 10000 nM
- IC50 (786-0): 3400 nM
- IC50 (U-251): > 10000 nM
- IC50 (BaF3 [30]): 5.8 nM
- IC50 (BaF3 [31]): 74.7 nM
